Measured values from US11000033B2, “Ketone or oxime compound, and herbicide” (NISSAN CHEMICAL CORPORATION, priority 2014, dated 2021).

Tests used:
Type in all cases: in vivo
[1] = test system: Echinochloa crus-galli var. crus-galli; assay: Test Example 5: herbicidal effect by foliage application, plastic box (symbol H); settings: 320 g/ha, 3 weeks after application
Source text: (§1) Herbicidal Effect Test by Foliage Application
(§2) Sterilized diluvial soil was placed in a plastic box having a length of 21 cm, a width of 13 cm, and a depth of 7 cm. Each of the seeds of Digitaria ciliaris, Setaria viridis, Echinochloa crus-galli var. crus-galli, Avena fatua, Alopecurus myosuroides, Lolium multiflorum Lam., Apera spica-venti, Abutilon theophrasti, Amaranthus retroflexus, Chenopodium album, Stellaria media, Galium spurium, Veronica persica, corn, soybean, rice plant, wheat, beet, and rapeseed was sowed in a spot-like manner and was covered with the soil of a thickness of about 1.5 cm. Thereafter, the plants were grown in the greenhouse of 25° C. to 30° C. After the plants were grown for 14 days, the emulsion agent of the compound of the present invention prepared in accordance with Formulation Example 2 was diluted with water so as to be a predetermined herbicide amount and the diluted emulsion agent was uniformly applied to a foliage part with a small-size spray. 3 weeks later from the herbicide application, the effect to each plant was investigated in accordance with the criteria of Test Example 1.

rapeseed = assay: Test Example 5: effect on crop by foliage application, plastic box (symbol g); settings: 320 g/ha, 3 weeks after application
Source text: as §1
(§3) Sterilized diluvial soil was placed in a plastic box having a length of 21 cm, a width of 13 cm, and a depth of 7 cm. Each of the seeds of Digitaria ciliaris, Setaria viridis, Echinochloa crus-galli var. crus-galli, Avena fatua, Alopecurus myosuroides, Lolium multiflorum Lam., Apera spica-venti, Abutilon theophrasti, Amaranthus retroflexus, Chenopodium album, Stellaria media, Galium spurium, Veronica persica, corn, soybean, rice plant, wheat, beet, and rapeseed was sowed in a spot-like manner and was covered with the soil of a thickness of about 1.5 cm. Thereafter, the plants were grown in the greenhouse of 25° C. to 30° C.

Apera spica-venti = assay: Test Example 5: herbicidal effect by foliage application, plastic box (symbol L); settings: 320 g/ha, 3 weeks after application
Source text: as §1, §2

[2] = test system: directly sowed rice plant; assay: Test Example 3: effect on crop by foliage application, Wagner pot (symbol b); settings: application herbicide amount 320 g/ha
Protocol: as §1
After alluvial soil was placed into 1/10000 are of Wagner pot, water was poured and mixed to form a submerged condition having a water depth of 0.1 cm to 0.5 cm. Seeds of Echinochloa crus-galli var. crus-galli, Leptochloa chinensis, Cyperus difformis, and rice were sowed and the pot was placed in the greenhouse of 25° C. to 30° C. to grow the plants.

soybean = assay: Test Example 5: effect on crop by foliage application, plastic box (symbol d); settings: 320 g/ha, 3 weeks after application
Source text: as §1, §3

Cyperus difformis = assay: Test Example 3: herbicidal effect by foliage application, Wagner pot (symbol E); settings: application herbicide amount 320 g/ha
Protocol: as §1
(§4) After alluvial soil was placed into 1/10000 are of Wagner pot, water was poured and mixed to form a submerged condition having a water depth of 0.1 cm to 0.5 cm. Seeds of Echinochloa crus-galli var. crus-galli, Leptochloa chinensis, Cyperus difformis, and rice were sowed and the pot was placed in the greenhouse of 25° C. to 30° C. to grow the plants. After the plants were grown for 14 days, the emulsion agent of the compound of the present invention prepared in accordance with Formulation Example 2 was diluted with water so as to be a predetermined herbicide amount and the diluted emulsion agent was uniformly applied to a foliage part with a small-size spray. 3 weeks later from the herbicide application, the effect to each plant was investigated in accordance with the criteria of Test Example 1.

Digitaria ciliaris = assay: Test Example 5: herbicidal effect by foliage application, plastic box (symbol F); settings: 320 g/ha, 3 weeks after application
Source text: as §1, §2

Stellaria media = assay: Test Example 5: herbicidal effect by foliage application, plastic box (symbol P); settings: 320 g/ha, 3 weeks after application
Source text: as §1, §2

Amaranthus retroflexus = assay: Test Example 5: herbicidal effect by foliage application, plastic box (symbol N); settings: 320 g/ha, 3 weeks after application
Source text: as §1, §2

wheat = assay: Test Example 5: effect on crop by foliage application, plastic box (symbol e); settings: 320 g/ha, 3 weeks after application
Source text: as §1, §3

Abutilon theophrasti = assay: Test Example 5: herbicidal effect by foliage application, plastic box (symbol M); settings: 320 g/ha, 3 weeks after application
Source text: as §1, §2

Leptochloa chinensis = assay: Test Example 3: herbicidal effect by foliage application, Wagner pot (symbol D); settings: application herbicide amount 320 g/ha
Protocol: as §1, §4

Veronica persica = assay: Test Example 5: herbicidal effect by foliage application, plastic box (symbol R); settings: 320 g/ha, 3 weeks after application
Source text: as §1, §2

Alopecurus myosuroides = assay: Test Example 5: herbicidal effect by foliage application, plastic box (symbol J); settings: 320 g/ha, 3 weeks after application
Source text: as §1, §2

rice plant = assay: Test Example 5: effect on crop by foliage application, plastic box (symbol b); settings: 320 g/ha, 3 weeks after application
Source text: as §1, §3

[3] = test system: Echinochloa crus-galli var. crus-galli; assay: Test Example 3: herbicidal effect by foliage application, Wagner pot (symbol H); settings: application herbicide amount 320 g/ha
Protocol: as §1, §4

beet = assay: Test Example 5: effect on crop by foliage application, plastic box (symbol f); settings: 320 g/ha, 3 weeks after application
Source text: as §1, §3

corn = assay: Test Example 5: effect on crop by foliage application, plastic box (symbol c); settings: 320 g/ha, 3 weeks after application
Source text: as §1, §3

Setaria viridis = assay: Test Example 5: herbicidal effect by foliage application, plastic box (symbol G); settings: 320 g/ha, 3 weeks after application
Source text: as §1, §2

Chenopodium album = assay: Test Example 5: herbicidal effect by foliage application, plastic box (symbol O); settings: 320 g/ha, 3 weeks after application
Source text: as §1, §2

Avena fatua = assay: Test Example 5: herbicidal effect by foliage application, plastic box (symbol I); settings: 320 g/ha, 3 weeks after application
Source text: as §1, §2

Lolium multiflorum Lam. = assay: Test Example 5: herbicidal effect by foliage application, plastic box (symbol K); settings: 320 g/ha, 3 weeks after application
Source text: as §1, §2

Galium spurium = assay: Test Example 5: herbicidal effect by foliage application, plastic box (symbol Q); settings: 320 g/ha, 3 weeks after application
Source text: as §1, §2

| Compound | g: rapeseed, effect on crop grade (rapeseed) | d: soybean, effect on crop grade (soybean) | F: Digitaria ciliaris, herbicidal effect grade (Digitaria ciliaris) | P: Stellaria media, herbicidal effect grade (Stellaria media) | N: Amaranthus retroflexus, herbicidal effect grade (Amaranthus retroflexus) | e: wheat, effect on crop grade (wheat) | M: Abutilon theophrasti, herbicidal effect grade (Abutilon theophrasti) | R: Veronica persica, herbicidal effect grade (Veronica persica) | J: Alopecurus myosuroides, herbicidal effect grade (Alopecurus myosuroides) | b: directly sowed rice plant, effect on crop grade (rice plant) | f: beet, effect on crop grade (beet) | c: corn, effect on crop grade (corn) | G: Setaria viridis, herbicidal effect grade (Setaria viridis) | O: Chenopodium album, herbicidal effect grade (Chenopodium album) | I: Avena fatua, herbicidal effect grade (Avena fatua) | also measured |
| --- | --- | --- | --- | --- | --- | --- | --- | --- | --- | --- | --- | --- | --- | --- | --- | --- |
| CON=C(C)CC1CC(O)=C(c2c(C)cc(NC(=O)OC(C)(C)C)cc2C)C1=O (mixture of isomers) [6-033] | 1 (Herbicidal ratio of 5% or higher and lower than 20%) | 0 (Herbicidal ratio of 5% or lower (almost no effect)) | 0 (Herbicidal ratio of 5% or lower (almost no effect)) | 0 (Herbicidal ratio of 5% or lower (almost no effect)) | 0 (Herbicidal ratio of 5% or lower (almost no effect)) | 0 (Herbicidal ratio of 5% or lower (almost no effect)) | 0 (Herbicidal ratio of 5% or lower (almost no effect)) | 0 (Herbicidal ratio of 5% or lower (almost no effect)) | 0 (Herbicidal ratio of 5% or lower (almost no effect)) | 3 (Herbicidal ratio of 40% or higher and lower than 70%) | 0 (Herbicidal ratio of 5% or lower (almost no effect)) | 3 (Herbicidal ratio of 40% or higher and lower than 70%) | 0 (Herbicidal ratio of 5% or lower (almost no effect)) | 0 (Herbicidal ratio of 5% or lower (almost no effect)) | 3 (Herbicidal ratio of 40% or higher and lower than 70%) | H: Echinochloa crus-galli var. crus-galli, herbicidal effect grade [1]: 1 (Herbicidal ratio of 5% or higher and lower than 20%); L: Apera spica-venti, herbicidal effect grade (Apera spica-venti): 0 (Herbicidal ratio of 5% or lower (almost no effect)); effect on crop b (directly sowed rice plant), grade 0-5 [2]: 0 (Herbicidal ratio of 5% or lower (almost no effect)); herbicidal effect on E, grade 0-5 (Cyperus difformis): 3 (Herbicidal ratio of 40% or higher and lower than 70%); herbicidal effect on D (Leptochloa chinensis), grade 0-5 (Leptochloa chinensis): 0 (Herbicidal ratio of 5% or lower (almost no effect)); herbicidal effect on H (Echinochloa crus-galli var. crus-galli), grade 0-5 [3]: 0 (Herbicidal ratio of 5% or lower (almost no effect)) |
| CON=C(C)CC1CC(OC)=C(c2c(C)cc(-c3ccc(SC)cc3)cc2C)C1=O (mixture of isomers) [6-021] | 3 (Herbicidal ratio of 40% or higher and lower than 70%) | 0 (Herbicidal ratio of 5% or lower (almost no effect)) | 0 (Herbicidal ratio of 5% or lower (almost no effect)) | 0 (Herbicidal ratio of 5% or lower (almost no effect)) | 0 (Herbicidal ratio of 5% or lower (almost no effect)) | 0 (Herbicidal ratio of 5% or lower (almost no effect)) | 0 (Herbicidal ratio of 5% or lower (almost no effect)) | 0 (Herbicidal ratio of 5% or lower (almost no effect)) | 3 (Herbicidal ratio of 40% or higher and lower than 70%) | 0 (Herbicidal ratio of 5% or lower (almost no effect)) | 0 (Herbicidal ratio of 5% or lower (almost no effect)) | 0 (Herbicidal ratio of 5% or lower (almost no effect)) | 3 (Herbicidal ratio of 40% or higher and lower than 70%) | 0 (Herbicidal ratio of 5% or lower (almost no effect)) | 1 (Herbicidal ratio of 5% or higher and lower than 20%) | K: Lolium multiflorum Lam., herbicidal effect grade (Lolium multiflorum Lam.): 5 (Herbicidal ratio of 90% or more (almost completely withered)); Q: Galium spurium, herbicidal effect grade (Galium spurium): 0 (Herbicidal ratio of 5% or lower (almost no effect)) |
